From US20210155644A1, “CYCLOPENTENYL PURINE DERIVATIVE OR SALT THEREOF” (Fujifilm Corporation, priority 2018, published 2021)
Like-named read-outs stand apart in the source and are kept apart here.

Tested on: adenovirus type 6 (ADV6)
Experiment: Evaluation of anti-adenovirus activity: CRL-11516 cells infected with ADV6, anti-hexon staining, count of stained cells
Format: cell-based
Procedure: A system in which CRL-11516 cells (available from ATCC) were infected with adenovirus type 6 (hereinafter, referred to as ADV6) was constructed, and a test for evaluating the anti-adenovirus activity of the compound according to the embodiment of the present invention and the compound of Comparative Example was carried out using the system. The test for evaluating the anti-adenovirus activity was carried out according to the method described below.
CRL-11516 cells were added to a 96-well plate at a cell density of 1×10^4 cells/well and cultured at 37° C. for 24 hours. After the culture was completed, the cell culture liquid was removed, and a serial dilution (100 μL) of the compound according to the embodiment of the present invention or the compound of Comparative Example was added. ADV6 (corresponding to 50TCID50) was added thereto, followed by culturing at 37° C. for 48 hours.
After the culture was completed, the infected cells were stained using Adeno-X Rapid Titer Kit (manufactured by Takara Bio Inc.). 100% methanol was added thereto and the cells were fixed at −20° C. for 10 minutes. The plate was washed three times with phosphate buffered saline (hereinafter, referred to as PBS) and then Mouse Anti-Hexon Antibody was added thereto, followed by incubation at 37° C. for 1 hour. After the incubation was completed, the plate was washed three times with PBS, and Rat Anti-Mouse Antibody was added thereto, followed by incubation at 37° C. for 1 hour. After the incubation was completed, a mixed staining solution of Stable Peroxidase Buffer:DAB Substrate=10:1 was added thereto, followed by incubation at room temperature for 10 minutes for staining of the cells.
The number of dark brown-stained cells was counted under a microscope, and the concentration of the test drug that reduces the dark brown-stained cells by 50% was defined as EC50. EC50 values were calculated for the triplicate test results, and a mean value and a standard deviation thereof were determined.

[1] = Human mastadenovirus C, 48 h, CRL-11516 cells infected with ADV6, 48 hours culture, concentration reducing dark brown-stained cells by 50%; read-out: Anti-AdV activity EC50
[2] = CRL-11516 cells infected with ADV6, 48 hours culture, concentration reducing dark brown-stained cells by 50%; read-out: Anti-AdV activity EC50

Row | Structure (SMILES) | EC50 [1] | EC50 [2] | other results
1 | COCCOc1nc(N)nc2c1ncn2[C@H]1C=C[C@@H](CO[P@](=O)(N[C@@H](C)C(=O)OC(C)C)Oc2ccccc2)C1 [Example 2-2-21, isopropyl ((R)-(((1S,4R)-4-(2-amino-6-(2-methoxyethoxy)-9H-purin-9-yl)cyclopent-2-en-1-yl)methoxy) (phenoxy)phosphoryl)-L-alaninate] | 10 to 100 nM | – | –
2 | COC(=O)[C@H](C)NP(=O)(OC[C@@H]1C=C[C@H](n2cnc3c(Cl)nc(N)nc32)C1)Oc1ccc(Cl)cc1 (stereo partly drawn) [Example 1-2-4, methyl ((((1S,4R)-4-(2-amino-6-chloro-9H-purin-9-yl)cyclopent-2-en-1-yl)methoxy)(4-chlorophenoxy)phosphoryl)-L-alaninate] | – | < 10 nM | –
3 | CC(C)OC(=O)[C@H](C)N[P@@](=O)(OC[C@@H]1C=C[C@H](n2cnc3c(OC4CCC4)nc(N)nc32)C1)Oc1ccccc1 [Example 2-2-35, isopropyl ((R)-(((1S,4R)-4-(2-amino-6-cyclobutoxy-9H-purin-9-yl)cyclopent-2-en-1-yl)methoxy)(phenoxy)phosphoryl)-L-alaninate] | 10 to 100 nM | – | –
4 | COc1nc(N)nc2c1ncn2[C@H]1C=C[C@@H](COP(=O)(OCCSC(=O)C(C)(C)C)Oc2ccccc2)C1 (stereo partly drawn) [Example 4-7-2, S-(2-(((((1 S,4R)-4-(2-amino-6-methoxy-9H-purin-9-yl)cyclopent-2-en-1-yl)methoxy) (phenoxy)phosphoryl)oxy)ethyl) 2,2-dimethylpropanethioate] | – | – | EC50 (read-out: Anti-AdV activity EC50; CRL-11516 cells infected with ADV6, 48 hours culture, concentration reducing dark brown-stained cells by 50%): 10 to 100 nM
5 | CC(C)OC(=O)[C@H](C)NP(=O)(OC[C@@H]1C=C[C@H](n2cnc3c(Cl)nc(N)nc32)C1)Oc1ccccc1 (stereo partly drawn) [Example 4-3-1, Isopropyl ((((1 S,4R)-4-(2-amino-6-chloro-9H-purin-9-yl)cyclopent-2-en-1-yl)methoxy)(phenoxy)phosphoryl)-L-alaninate] | – | 10 to 100 nM | –
6 | CC(C)OC(=O)[C@H](C)N[P@@](=O)(OC[C@@H]1C=C[C@H](n2cnc3c(N(C)C)nc(N)nc32)C1)Oc1ccccc1 [Example 2-2-25, isopropyl ((R)-(((1S,4R)-4-(2-amino-6-(dimethylamino)-9H-purin-9-yl)cyclopent-2-en-1-yl)methoxy)(phenoxy)phosphoryl)-L-alaninate] | 10 to 100 nM | – | –
7 | COc1nc(N)nc2c1ncn2[C@H]1C=C[C@@H](COP(=O)(OCCSSCCOCc2ccccc2)OCCSSCCOCc2ccccc2)C1 [Example 1-2-8, ((1S,4R)-4-(2-amino-6-methoxy-9H-purin-9-yl)cyclopent-2-en-1-yl)methylbis(2-((2-(benzyloxy)ethyl)disulfanyl)ethyl)phosphate] | – | 10 to 100 nM | –
8 | COC(=O)[C@H](C)NP(=O)(OC[C@@H]1C=C[C@H](n2cnc3c(OC)nc(N)nc32)C1)Oc1ccccc1 (stereo partly drawn) [Example 2-2-16, Methyl ((((1S,4R)-4-(2-amino-6-methoxy-9H-purin-9-yl)cyclopent-2-en-1-yl)methoxy) (phenoxy)phosphoryl)-L-alaninate] | – | 10 to 100 nM | –
9 | COC(=O)[C@H](C)NP(=O)(OC[C@@H]1C=C[C@H](n2cnc3c(N)nc(N)nc32)C1)Oc1ccc(Br)cc1 (stereo partly drawn) [Example 1-2-6, Methyl ((4-bromophenoxy)(((1S,4R)-4-(2,6-diamino-9H-purin-9-yl)cyclopent-2-en-1-yl)methoxy)phosphoryl)-L-alaninate] | 100 to 1000 nM | – | –
10 | COC(=O)[C@H](C)NP(=O)(OC[C@@H]1C=C[C@H](n2cnc3c(OC)nc(N)nc32)C1)Oc1ccccc1 (stereo partly drawn) [Example 4-2-2, methyl ((((1 S,4R)-4-(2-amino-6-methoxy-9H-purin-9-yl)cyclopent-2-en-1-yl)methoxy)(phenoxy)phosphoryl)-L-alaninate] | – | 10 to 100 nM | –
11 | COc1nc(N)nc2c1ncn2[C@H]1C=C[C@@H](COP(=O)(N[C@@H](C)C(=O)OC(C)C)Oc2ccc(Cl)cc2)C1 (single isomer, unassigned) [Example 4-8-2] | – | < 10 nM | –
12 | CCOc1nc(N)nc2c1ncn2[C@H]1C=C[C@@H](CO[P@@](=O)(N[C@@H](C)C(=O)OC(C)C)Oc2ccccc2)C1 [Example 2-2-18, Isopropyl ((S)-(((1S,4R)-4-(2-amino-6-ethoxy-9H-purin-9-yl)cyclopent-2-en-1-yl)methoxy) (phenoxy)phosphoryl)-L-alaninate] | 100 to 1000 nM | – | –
13 | COC(=O)[C@H](C)NP(=O)(OC[C@@H]1C=C[C@H](n2cnc3c(Cl)nc(N)nc32)C1)Oc1ccc(Cl)cc1 (stereo partly drawn) [Example 4-5-2, methyl ((((1 S,4R)-4-(2-amino-6-chloro-9H-purin-9-yl)cyclopent-2-en-1-yl)methoxy)(4-chlorophenoxy)phosphoryl)-L-alaninate] | – | 10 to 100 nM | –
14 | COc1nc(N)nc2c1ncn2[C@H]1C=C[C@@H](COP(=O)(N[C@@H](C)C(=O)OC(C)C)Oc2ccc(Cl)cc2)C1 (single isomer, unassigned) [Example 4-8-1] | – | 10 to 100 nM | –
15 | COc1nc(N)nc2c1ncn2[C@H]1C=C[C@@H](COP(=O)(N[C@@H](C)C(=O)OC(C)C)Oc2ccc3c(c2)OCO3)C1 (stereo partly drawn) [Example 6-2-21, isopropyl ((((1S,4R)-4-(2-amino-6-methoxy-9H-purin-9-yl)cyclopent-2-en-1-yl)methoxy)(benzo[d][1,3]dioxolo-5-yloxy)phosphoryl)-L-alaninate] | – | 10 to 100 nM | –
16 | COc1cccc(OP(=O)(N[C@@H](C)C(=O)OC(C)C)OC[C@@H]2C=C[C@H](n3cnc4c(OC)nc(N)nc43)C2)c1 (stereo partly drawn) [Example 6-2-7, isopropyl ((((1S,4R)-4-(2-amino-6-methoxy-9H-purin-9-yl)cyclopent-2-en-1-yl)methoxy)(3-methoxyphenoxy)phosphoryl)-L-alaninate] | 10 to 100 nM | – | –
17 | Nc1nc2c(ncn2[C@H]2C=C[C@@H](CO)C2)c(=O)[nH]1 [Example 1] | – | – | EC50 (Human mastadenovirus C; CRL-11516 cells infected with ADV6, 48 hours culture, concentration reducing dark brown-stained cells by 50%; read-out: Anti-AdV activity EC50): 1000 to 10000 nM
18 | CNc1nc(N)nc2c1ncn2[C@H]1C=C[C@@H](CO[P@](=O)(N[C@@H](C)C(=O)OC(C)C)Oc2ccccc2)C1 [Example 2-2-29] | – | 10 to 100 nM | –
19 | CC(C)OC(=O)[C@H](C)N[P@](=O)(OC[C@@H]1C=C[C@H](n2cnc3c(N(C)C)nc(N)nc32)C1)Oc1ccccc1 [Example 2-2-26, Isopropyl ((S)-(((1S,4R)-4-(2-amino-6-(dimethylamino)-9H-purin-9-yl)cyclopent-2-en-1-yl)methoxy) (phenoxy)phosphoryl)-L-alaninate] | 100 to 1000 nM | – | –
20 | COC(=O)C(C)(C)NP(=O)(OC[C@@H]1C=C[C@H](n2cnc3c(OC)nc(N)nc32)C1)Oc1ccc(Br)cc1 (stereo partly drawn) [Example 1-2-49, Methyl 2-(((((1S,4R)-4-(2-amino-6-methoxy-9H-purin-9-yl)cyclopent-2-en-1-yl)methoxy)(4-bromophenoxy)phosphoryl)amino)-2-methylpropanoate] | < 10 nM | – | –
21 | COC(=O)[C@H](C)NP(=O)(OC[C@@H]1C=C[C@H](n2cnc3c(OC)nc(N)nc32)C1)Oc1ccc(Br)cc1 (stereo partly drawn) [Example 1-2-3, methyl ((((1S,4R)-4-(2-amino-6-methoxy-9H-purin-9-yl)cyclopent-2-en-1-yl)methoxy)(4-bromophenoxy)phosphoryl)-L-alaninate] | < 10 nM | – | –
22 | COC(=O)[C@H](C)NP(=O)(OC[C@@H]1C=C[C@H](n2cnc3c(N(C)C)nc(N)nc32)C1)Oc1ccc(Br)cc1 (stereo partly drawn) [Example 1-2-45, Methyl ((((1S,4R)-4-(2-amino-6-(dimethylamino)-9H-purin-9-yl)cyclopent-2-en-1-yl)methoxy)(4-bromophenoxy)phosphoryl)-L-alaninate] | < 10 nM | – | –
23 | CCOC(=O)[C@H](C)NP(=O)(OC[C@@H]1C=C[C@H](n2cnc3c(OC)nc(N)nc32)C1)Oc1ccccc1 (stereo partly drawn) [Example 1-2-34, ethyl ((((1S,4R)-4-(2-amino-6-methoxy-9H-purin-9-yl)cyclopent-2-en-1-yl)methoxy)(phenoxy)phosphoryl)-L-alaninate] | 10 to 100 nM | – | –
24 | COc1nc(N)nc2c1ncn2[C@H]1C=C[C@@H](COP(=O)(N[C@@H](C)C(=O)OC(C)C)Oc2ccccc2)C1 (stereo partly drawn) [Example 4-4-1, Isopropyl ((((1 S,4R)-4-(2-amino-6-methoxy-9H-purin-9-yl)cyclopent-2-en-1-yl)methoxy)(phenoxy)phosphoryl)-L-alaninate] | – | 10 to 100 nM | –
25 | CC(C)OC(=O)[C@H](C)NP(=O)(OC[C@@H]1C=C[C@H](n2cnc3c(Cl)nc(N)nc32)C1)Oc1ccc(Cl)cc1 (stereo partly drawn) [Example 1-2-70, isopropyl ((((1S,4R)-4-(2-amino-6-chloro-9H-purin-9-yl)cyclopent-2-en-1-yl)methoxy)(4-chlorophenoxy)phosphoryl)-L-alaninate] | 10 to 100 nM | – | –
26 | COc1nc(N)nc2c1ncn2[C@H]1C=C[C@@H](COP(=O)(N[C@@H](CC(C)C)C(=O)OC(C)C)Oc2ccccc2)C1 (single isomer, unassigned) [Example 7-1-1] | – | 10 to 100 nM | –
27 | COC(=O)[C@H](C)NP(=O)(OC[C@@H]1C=C[C@H](n2cnc3c(Cl)nc(N)nc32)C1)Oc1ccccc1 (stereo partly drawn) [Example 2-2-7, Methyl ((((1S,4R)-4-(2-amino-6-chloro-9H-purin-9-yl)cyclopent-2-en-1-yl)methoxy) (phenoxy)phosphoryl)-L-alaninate] | 10 to 100 nM | – | –
